In US20200138892A1, “ANTI-DIABETIC ACTIVITY OF NEEM EXTRACT AND SYNERGISTIC COMBINATIONS OF UROLITHINS A AND B” (Natreon, Inc., priority 2018, published 2020):
Marks after values point to notes of the source that are not given here.

How the values were obtained:
Assay type in all cases: in vivo
[1] = test system: streptozotocin-induced diabetic mice; test: Fasting blood glucose in streptozotocin-induced diabetic mice (Study 2); conditions: for Fasting blood glucose: 10 mg/kg body weight orally; for Effect on STZ-induced increased sugar level (FBG), words: 10 mg/kg orally for 1 month, p<0.001 vs STZ
Description: Body weight, food intake, water intake, and fasting blood glucose (blood was collected following 12 hours fasting) were measured pre-induction of diabetes. Diabetes was induced by administering streptozotocin (50 mg/kg, body weight) in sodium citrate buffer, pH 4.5, intraperitoneally. Five days after streptozotocin administration fasting blood glucose was estimated (following 12 hours of fasting). Mice having blood glucose level 250±20 mg % was considered for the following study. The male and female mice were divided into the following four groups (n=8):
Following streptozotocin-induced hyperglycemia, treatment regimen was carried out for 1 month. 3-OH-DBP (Urolithin B) and 3,8-(OH)2-DBP (Urolithin A) each was separately suspended in 0.3% CMC and administered at a dose of 10 mg/kg body weight orally for 1 month. During the 1-month treatment, body weight and food and water intake were monitored at regular intervals. FBG (following 12 hours of fasting) was estimated twice at 15-day intervals. The results were expressed in terms of mean±SEM (n=8). The data were subjected to one-way ANOVA followed by Tukey's test using GraphPad Prism 4.0 software to establish statistical significance (*p<0.05, **p<0.01, ***p<0.001; ^# p<0.05, ^## p<0.01, ^### p<0.001).

[2] = test system: streptozotocin-induced diabetic mice; test: Fasting blood glucose in streptozotocin-induced diabetic mice (Study 1); conditions: for Blood sugar level (FBG): 250 mg/kg b.w. orally; for Effect on STZ-induced increased sugar level (FBG), words: Neem 50, Neem 100, Neem 250, Met 250, vs STZ-induced diabetic mice
Description: (§1) Body weight, food intake, water intake, and fasting basal blood glucose level were measured before induction on diabetes. Diabetes was induced by single administration of streptozotocin (65 mg/kg body weight) in sodium citrate buffer, pH 4.5, intraperitoneally. Five days after streptozotocin administration, fasting blood glucose level was estimated. Mice having blood glucose levels of 230±20 mg % were considered for the study. The male and female mice each were divided into the following groups:
Following streptozotocin-induced hyperglycemia, the treatment regimen was carried out for two weeks. Neem extract was suspended in 0.3% sodium carboxymethylcellulose (“CMC”) and administered at a dose of 50 mg/kg b.w., 100 mg/kg b.w., and 250 mg/kg b.w. orally for two weeks. Similarly, metformin was suspended in 0.3% CMC and administered at a dose of 250 mg/kg b.w. orally for two weeks. During the treatment schedule, body weight and food and water intake were monitored at regular intervals. Fasting blood glucose (“FBG”), HbA1C, plasma cholesterol, and triglyceride levels were monitored every week for two weeks. The results were expressed in terms of mean±SEM (n=4, from each gender). The data were subjected to one-way ANOVA followed by Tukey's test using GraphPad Prism 4.0 software to establish statistical significance (*p<0.05, **p<0.01, ***p<0.001; ^# p<0.05, ^## p<0.01, ^### p<0.001).

[3] = test system: streptozotocin-induced diabetic mice; test: HbA1C level in streptozotocin-induced diabetic mice (Study 1); conditions: for HbA1C level: 250 mg/kg b.w. orally
Description: as §1
Following streptozotocin-induced hyperglycemia, the treatment regimen was carried out for two weeks. Neem extract was suspended in 0.3% sodium carboxymethylcellulose (“CMC”) and administered at a dose of 50 mg/kg b.w., 100 mg/kg b.w., and 250 mg/kg b.w. orally for two weeks. Similarly, metformin was suspended in 0.3% CMC and administered at a dose of 250 mg/kg b.w. orally for two weeks. During the treatment schedule, body weight and food and water intake were monitored at regular intervals. […] The results were expressed in terms of mean±SEM (n=4, from each gender). The data were subjected to one-way ANOVA followed by Tukey's test using GraphPad Prism 4.0 software to establish statistical significance (*p<0.05, **p<0.01, ***p<0.001; ^# p<0.05, ^## p<0.01, ^### p<0.001).

[4] = test system: streptozotocin-induced diabetic mice; test: Fasting blood glucose in streptozotocin-induced diabetic mice (Study 1); conditions: 250 mg/kg b.w. orally, Week 3
[5] = STZ-induced diabetic female mice, Day 5 (Post-Induction)
[6] = STZ-induced diabetic female mice, Day 15 of treatment
[7] = STZ-induced diabetic female mice, Day 30 of treatment
[8] = STZ-induced diabetic female mice, Pre-Induction
[9] = STZ-induced diabetic male mice, Day 5 (Post-Induction)
[10] = STZ-induced diabetic male mice, Day 15 of treatment
[11] = STZ-induced diabetic male mice, Day 30 of treatment
[12] = STZ-induced diabetic male mice, Pre-Induction
[13] = STZ-induced diabetic female mice, Week 2
[14] = STZ-induced diabetic male mice, Week 2

| SMILES | Fasting blood glucose [1, 5] | Fasting blood glucose [1, 6] | Fasting blood glucose [1, 7] | Fasting blood glucose [1, 8] [mg %] | Fasting blood glucose [1, 9] [mg %] | Fasting blood glucose [1, 10] | Fasting blood glucose [1, 11] | Fasting blood glucose [1, 12] | Effect on STZ-induced increased sugar level (FBG), words ([1]; female mice) | Effect on STZ-induced increased sugar level (FBG), words ([1]; male mice) | further results |
| --- | --- | --- | --- | --- | --- | --- | --- | --- | --- | --- | --- |
| O=c1oc2cc(O)ccc2c2ccc(O)cc12 [3,8-(OH)2-DBP, 3,8-dihydroxy-dibenzo-α-pyrone] | 253.2 ± 5.194*** mg % | 166 ± 2.623***^, ### mg % | 153.9 ± 9.953***^, ### mg % | 95.45 ± 12.67 | 252.2 ± 1.780 | 166 ± 5.276***^, ### mg % | 156.7 ± 10.75***^, ### mg % | 94.12 ± 7.811*** mg % | attenuated the STZ-induced increased sugar level | attenuated the STZ-induced increased sugar level | – |
| O=c1oc2cc(O)ccc2c2ccccc12 [3-OH-DBP, 3-hydroxy-dibenzo-α-pyrone] | 251.6 ± 1.280*** mg % | 189.8 ± 2.690***^, ### mg % | 147.3 ± 15.21***^, ### mg % | 126.8 ± 3.848 | 254.6 ± 1.575 | 171 ± 6.586***^, ### mg % | 134.2 ± 3.381***^, ### mg % | 99.06 ± 14.73*** mg % | attenuated the STZ-induced increased sugar level | attenuated the STZ-induced increased sugar level | – |
| CN(C)C(=N)N=C(N)N [Metformin, metformin] | – | – | – | – | – | – | – | – | – | – | Blood sugar level (FBG) ([2]; STZ-induced diabetic female mice, Day 0): 119.2 ± 15.5 ^ mg %; Blood sugar level (FBG) ([2]; STZ-induced diabetic female mice, Week 1): 241.1 ± 22.19*** mg %; Blood sugar level (FBG) [2, 13]: 133.8 ± 9.04^## mg %; Blood sugar level (FBG) ([2]; STZ-induced diabetic male mice, Day 0): 117.3 ± 23.99 ^ mg %; Blood sugar level (FBG) ([2]; STZ-induced diabetic male mice, Week 1): 269.2 ± 25.37*** mg %; Blood sugar level (FBG) [2, 14]: 133.4 ± 7.96**^, # mg %; Effect on STZ-induced increased sugar level (FBG), words ([2]; female mice): attenuated the STZ-induced increased sugar level; Effect on STZ-induced increased sugar level (FBG), words ([2]; male mice): attenuated the STZ-induced increased sugar level; HbA1C level [3, 13]: 5.53 ± 0.46%; HbA1C level ([3]; STZ-induced diabetic female mice, Week 3): 3.08 ± 0.58^## %; HbA1C level [3, 14]: 5.05 ± 0.51%; HbA1C level ([3]; STZ-induced diabetic male mice, Week 3): 4.40 ± 0.65^# %; Effect on STZ-induced increase in HbA1C level, words ([3]; male and female mice, Neem 50, Neem 100, Neem 250, Met 250, vs STZ-induced diabetic mice): attenuated the STZ-induced increased in HbA1C level; Blood sugar level (FBG) ([4]; STZ-induced diabetic female mice): 121.2 ± 8.192 mg %; Blood sugar level (FBG) ([4]; STZ-induced diabetic male mice): 136.2 ± 4.89 mg % |
